Experimental findings from US20060211698A1, “Bicyclic heteroaryl derivatives for treating viruses” (Genelabs, Inc., priority 2005, published 2006) are described below.

SMILES strings stand for the structures.

In the test the target is T1, HCV-NS5b (Hepatitis C virus genotype 1b, UniProt Q9WMX2).
T1 construct: The cloned fragment was missing the C terminus 21 amino acid residues; (His)6 (C); made in house; host or cells: XL-1 cells (E. coli)
As to the kind of experiment: HCV-NS5b Enzyme Assay. Conditions: 1 μM test compound; incorporation of [3H]-UTP, 37° C., 2 hours. Format: biochemical. The gist of the method:
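The NS5B construct lacks its C-terminal 21 residues, carries a C-terminal His6 tag and was expressed in E. coli. [^3H]-UTP incorporation on a biotinylated HCV heteropolymeric template (10 ng/μL) with 10 μM each NTP, pH 7.5, 5 mM MgCl2 and 5% DMSO ran 2 h at 37° C and was read by SPA scintillation. IC50s came from 10-point 2-fold series starting at 50 or 2 μM.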
For orientation: inhibition means the drop in the measured response relative to a control, in per cent. Turning to `COc1ccc(F)c(-c2ccc3cc(-c4c(C5CCCCC5)c5ccc(C(=O)O)cc5n4CC(=O)N4CCOCC4)ccc3n2)c1` [Compound 270, 3-Cyclohexyl-2-[2-(2-fluoro-5-methoxy-phenyl)-quinolin-6-yl]-1-(2-morpholin-4-yl-2-oxo-ethyl)-1H-indole-6-carboxylic acid], the inhibition at 1 µM stood at 95%.

`Cn1cccc1-c1ccc2cc(-c3c(C4CCCCC4)c4ccc(C(=O)O)cc4n3CC(=O)N3CCOCC3)ccc2n1` [Compound 271, 3-Cyclohexyl-2-[2-(1-methyl-1H-pyrrol-2-yl)-quinolin-6-yl]-1-(2-morpholin-4-yl-2-oxo-ethyl)-1H-indole-6-carboxylic acid]: the inhibition at 1 µM was determined as 100%. Consider `COc1ccc(-c2ccc3cc(-c4c(C5CCCCC5)c5ccc(C(=O)O)cc5n4CC(=O)N4CCOCC4)ccc3n2)c(OC)c1OC` [Compound 272, 3-Cyclohexyl-1-(2-morpholin-4-yl-2-oxo-ethyl)-2-[2-(2,3,4-trimethoxy-phenyl)-quinolin-6-yl]-1H-indole-6-carboxylic acid], for which the inhibition at 1 µM is 101%. Then `COc1ccc(-c2ccc3cc(-c4c(C5CCCCC5)c5ccc(C(=O)O)cc5n4CC(=O)N4CCOCC4)ccc3n2)cc1F` [Compound 273, 3-Cyclohexyl-2-[2-(3-fluoro-4-methoxy-phenyl)-quinolin-6-yl]-1-(2-morpholin-4-yl-2-oxo-ethyl)-1H-indole-6-carboxylic acid], with 99.4%; and `Cc1nc(C)c(-c2ccc3cc(-c4c(C5CCCCC5)c5ccc(C(=O)O)cc5n4CC(=O)N4CCC(N(C)C)CC4)ccc3n2)s1` [Compound 274, 3-Cyclohexyl-1-[2-(4-dimethylamino-piperidin-1-yl)-2-oxo-ethyl]-2-[2-(2,4-dimethyl-thiazol-5-yl)-quinolin-6-yl]-1H-indole-6-carboxylic acid], with 96%; and `CCN(CC)C1CCN(C(=O)Cn2c(-c3ccc4nc(-c5sc(C)nc5C)ccc4c3)c(C3CCCCC3)c3ccc(C(=O)O)cc32)CC1` [Compound 275, 3-Cyclohexyl-1-[2-(4-diethylamino-piperidin-1-yl)-2-oxo-ethyl]-2-[2-(2,4-dimethyl-thiazol-5-yl)-quinolin-6-yl]-1H-indole-6-carboxylic acid], with 98.9%. As to `O=C(O)c1ccc2c(C3CCCCC3)c(-c3ccc4nc(-c5ccccc5Cl)ccc4c3)n(CC(=O)N3CCOCC3)c2c1` [Compound 276, 2-[2-(2-Chloro-phenyl)-quinolin-6-yl]-3-cyclohexyl-1-(2-morpholin-4-yl-2-oxo-ethyl)-1H-indole-6-carboxylic acid], the inhibition at 1 µM is 97.6%.

With `Cc1nc(C)c(-c2ccc3cc(-c4c(C5CCCCC5)c5ccc(C(=O)O)cc5n4CC(=O)N4CCCC4C)ccc3n2)s1` (centres unmarked) [Compound 277, 3-Cyclohexyl-2-[2-(2,4-dimethyl-thiazol-5-yl)-quinolin-6-yl]-1-[2-(2-methyl-pyrrolidin-1-yl)-2-oxo-ethyl]-1H-indole-6-carboxylic acid], the inhibition at 1 µM amounted to 96.3%. On to `Cc1nc(C)c(-c2ccc3cc(-c4c(C5CCCCC5)c5ccc(C(=O)O)cc5n4CC(=O)N4CCC(N5CCOCC5)CC4)ccc3n2)s1` [Compound 278, 3-Cyclohexyl-2-[2-(2,4-dimethyl-thiazol-5-yl)-quinolin-6-yl]-1-[2-(4-morpholin-4-yl-piperidin-1-yl)-2-oxo-ethyl]-1H-indole-6-carboxylic acid], for which the inhibition at 1 µM worked out at 91.8%. The figure for `Cc1nc(C)c(-c2ccc3cc(-c4c(C5CCCCC5)c5ccc(C(=O)O)cc5n4CC(=O)N4C(C)COCC4C)ccc3n2)s1` (centres unmarked) [Compound 279, 3-Cyclohexyl-1-[2-(3,5-dimethyl-morpholin-4-yl)-2-oxo-ethyl]-2-[2-(2,4-dimethyl-thiazol-5-yl)-quinolin-6-yl]-1H-indole-6-carboxylic acid] is 100%; for `Cc1nc(C)c(-c2ccc3cc(-c4c(C5CCCCC5)c5ccc(C(=O)O)cc5n4CC(=O)N4CCC(C)CC4)ccc3n2)s1` [Compound 280, 3-Cyclohexyl-2-[2-(2,4-dimethyl-thiazol-5-yl)-quinolin-6-yl]-1-[2-(4-methyl-piperidin-1-yl)-2-oxo-ethyl]-1H-indole-6-carboxylic acid] it is 97.7%; for `Cc1sc(-c2ccc3cc(-c4c(C5CCCCC5)c5ccc(C(=O)O)cc5n4CC(=O)N4CCOCC4)ccc3n2)c(C)[n+]1[O-]` [Compound 281, 3-Cyclohexyl-2-[2-(2,4-dimethyl-3-oxy-thiazol-5-yl)-quinolin-6-yl]-1-(2-morpholin-4-yl-2-oxo-ethyl)-1H-indole-6-carboxylic acid] it is 77.6%. `Cc1nc(C)c(-c2ccc3cc(-c4c(C5CCCCC5)c5ccc(C(=O)O)cc5n4CC(=O)N4CCOCC4)cc(Br)c3n2)s1` [Compound 282, 2-[8-Bromo-2-(2,4-dimethyl-thiazol-5-yl)-quinolin-6-yl]-3-cyclohexyl-1-(2-morpholin-4-yl-2-oxo-ethyl)-1H-indole-6-carboxylic acid]: the inhibition at 1 µM came to 87.8%.

For `Cc1nc(C)c(-c2ccc3cc(-c4c(C5CCCCC5)c5ccc(C(=O)O)cc5n4CCCN(C)C)ccc3n2)s1` [Compound 286, 3-Cyclohexyl-1-(3-dimethylamino-propyl)-2-[2-(2,4-dimethyl-thiazol-5-yl)-quinolin-6-yl]-1H-indole-6-carboxylic acid], the inhibition at 1 µM turned out to be 85.7%. For `Cc1nc(C)c(-c2ccc3cc(-c4c(C5CCCCC5)c5ccc(C(=O)O)cc5n4Cc4ccccc4)ccc3n2)s1` [Compound 287, 1-Benzyl-3-cyclohexyl-2-[2-(2,4-dimethyl-thiazol-5-yl)-quinolin-6-yl]-1H-indole-6-carboxylic acid], the inhibition at 1 µM stood at 95.2%.

As for `Cc1nc(C)c(-c2ccc3cc(-c4c(C5CCCCC5)c5ccc(C(=O)O)cc5n4Cc4ccncc4)ccc3n2)s1` [Compound 289, 3-Cyclohexyl-2-[2-(2,4-dimethyl-thiazol-5-yl)-quinolin-6-yl]-1-pyridin-4-ylmethyl-1H-indole-6-carboxylic acid], the inhibition at 1 µM turned out to be 95.7%. For the compound `Cc1nc(C)c(-c2ccc3cc(-c4c(C5CCCCC5)c5ccc(C(=O)O)cc5n4CCN4CCOCC4)ccc3n2)s1` [Compound 290, 3-Cyclohexyl-2-[2-(2,4-dimethyl-thiazol-5-yl)-quinolin-6-yl]-1-(2-morpholin-4-yl-ethyl)-1H-indole-6-carboxylic acid], the inhibition at 1 µM was 79.1%. On to `Cc1cc(Cn2c(-c3ccc4nc(-c5sc(C)nc5C)ccc4c3)c(C3CCCCC3)c3ccc(C(=O)O)cc32)no1` [Compound 291, 3-Cyclohexyl-2-[2-(2,4-dimethyl-thiazol-5-yl)-quinolin-6-yl]-1-(5-methyl-isoxazol-3-ylmethyl)-1H-indole-6-carboxylic acid], for which the inhibition at 1 µM is 96.4%. `Cc1nc(C)c(-c2ccc3cc(-c4c(C5CCCCC5)c5ccc(C(=O)O)cc5n4Cc4ccc(C(=O)O)cc4)ccc3n2)s1` [Compound 292, 1-(4-Carboxy-benzyl)-3-cyclohexyl-2-[2-(2,4-dimethyl-thiazol-5-yl)-quinolin-6-yl]-1H-indole-6-carboxylic acid]: the inhibition at 1 µM was 98.7%. Then `COc1cccc(Cn2c(-c3ccc4nc(-c5sc(C)nc5C)ccc4c3)c(C3CCCCC3)c3ccc(C(=O)O)cc32)c1` [Compound 293, 3-Cyclohexyl-2-[2-(2,4-dimethyl-thiazol-5-yl)-quinolin-6-yl]-1-(3-methoxy-benzyl)-1H-indole-6-carboxylic acid], with 69.2%.
